From PubChem BioAssay AID256 (DTP/NCI, 2004)
Several values for one entry are separate records, joined by “and”; a condition that tells them apart may be missing. Equal entries are not always repeated. Inconclusive results and toxic doses are left out. How the source made its calls: active means survival T/C of 150% or more; inactive means T/C below 125% in these data.

Test system: CD2F1 mice, L1210 leukemia ip, survival T/C
Test: NCI In Vivo Anticancer Drug Screen. Data for tumor model L1210 Leukemia (intraperitoneal) in CD2F1 (CDF1) mice
Details: higher = longer survival
Summary of the method: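 Vehicle-treated tumor-bearing mice served as controls (C) for compound-treated mice (T). Reported figure is T divided by C.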

[1] = endpoint: mean survival time, dose: 50.0 mg/kg/injection, schedule: Q04DX003 (ip), vehicle: Klucel (hydroxypropylcellulose) (HPC)
[2] = endpoint: mean survival time, dose: 100.0 mg/kg/injection, schedule: Q04DX003 (ip), vehicle: Klucel (hydroxypropylcellulose) (HPC)
[3] = endpoint: mean survival time, dose: 200.0 mg/kg/injection, schedule: Q04DX003 (ip), vehicle: Klucel (hydroxypropylcellulose) (HPC)
[4] = endpoint: mean survival time, dose: 400.0 mg/kg/injection, schedule: Q04DX003 (ip), vehicle: Klucel (hydroxypropylcellulose) (HPC)
[5] = endpoint: mean survival time, dose: 100.0 mg/kg/injection, schedule: Q01DX009 (ip), vehicle: saline with Tween-80
[6] = endpoint: mean survival time, dose: 100.0 mg/kg/injection, schedule: Q04DX003 (ip), vehicle: saline with Tween-80
[7] = endpoint: mean survival time, dose: 200.0 mg/kg/injection, schedule: Q01DX009 (ip), vehicle: saline with Tween-80
[8] = endpoint: mean survival time, dose: 200.0 mg/kg/injection, schedule: Q04DX003 (ip), vehicle: saline with Tween-80
[9] = endpoint: mean survival time, dose: 400.0 mg/kg/injection, schedule: Q01DX009 (ip), vehicle: saline with Tween-80
[10] = endpoint: mean survival time, dose: 400.0 mg/kg/injection, schedule: Q04DX003 (ip), vehicle: saline with Tween-80
[11] = endpoint: mean survival time, dose: 100.0 mg/kg/injection, schedule: Q01DX001 (ip), vehicle: saline
[12] = endpoint: mean survival time, dose: 200.0 mg/kg/injection, schedule: Q01DX001 (ip), vehicle: saline
[13] = endpoint: mean survival time, dose: 400.0 mg/kg/injection, schedule: Q01DX001 (ip), vehicle: saline
[14] = endpoint: mean survival time, dose: 100.0 mg/kg/injection, schedule: Q04DX003 (ip), vehicle: saline
[15] = endpoint: mean survival time, dose: 200.0 mg/kg/injection, schedule: Q04DX003 (ip), vehicle: saline
[16] = endpoint: mean survival time, dose: 400.0 mg/kg/injection, schedule: Q04DX003 (ip), vehicle: saline
[17] = endpoint: mean survival time, dose: 50.0 mg/kg/injection, schedule: Q01DX009 (ip), vehicle: saline with Tween-80

Measured: T/C

COc1cc(N)c2nc(C(O)C(O)C(O)CO)cnc2c1 (configuration not stated)
inactive: endpoint: median survival time, dose: 12.5 mg/kg/injection, schedule: Q01DX005 (ip), vehicle: distilled water + Tween-80 98 % of control | endpoint: median survival time, dose: 25.0 mg/kg/injection, schedule: Q01DX005 (ip), vehicle: distilled water + Tween-80 90 % of control | endpoint: median survival time, dose: 50.0 mg/kg/injection, schedule: Q01DX005 (ip), vehicle: distilled water + Tween-80 89 % of control | endpoint: median survival time, dose: 100.0 mg/kg/injection, schedule: Q01DX005 (ip), vehicle: distilled water + Tween-80 92 % of control | endpoint: median survival time, dose: 200.0 mg/kg/injection, schedule: Q01DX005 (ip), vehicle: distilled water + Tween-80 95 % of control

CC(C)(C)C(=O)/C=C/c1ccccc1
inactive: [1] 96 % of control | [2] 98 % of control and 102 % of control | [3] 98 % of control and 110 % of control | [4] 106 % of control

COc1ccc2c(ccc3nc(C)[nH]c(=O)c32)c1
inactive: endpoint: mean survival time, dose: 25.0 mg/kg/injection, schedule: Q01DX001 (ip), vehicle: Klucel (hydroxypropylcellulose) (HPC) 102 % of control | endpoint: mean survival time, dose: 50.0 mg/kg/injection, schedule: Q01DX001 (ip), vehicle: Klucel (hydroxypropylcellulose) (HPC) 94 % of control | endpoint: mean survival time, dose: 100.0 mg/kg/injection, schedule: Q01DX001 (ip), vehicle: Klucel (hydroxypropylcellulose) (HPC) 90 % of control

CC(=O)Nc1c(N)nc(Nc2nc3ccccc3[nH]2)[nH]c1=O
inactive: [5] 93 % of control | [6] 97 % of control | [7] 95 % of control | [8] 96 % of control | [9] 93 % of control | [10] 87 % of control

CCN(CC)CCOC(=O)c1ccc(NC(=O)COc2ccc3ccccc3c2)cc1
inactive: endpoint: mean survival time, dose: 12.5 mg/kg/injection, schedule: Q01DX009 (ip), vehicle: other 98 % of control and 97 % of control | endpoint: mean survival time, dose: 25.0 mg/kg/injection, schedule: Q01DX009 (ip), vehicle: other 97 % of control | endpoint: mean survival time, dose: 50.0 mg/kg/injection, schedule: Q01DX009 (ip), vehicle: other 98 % of control and 93 % of control | endpoint: mean survival time, dose: 100.0 mg/kg/injection, schedule: Q01DX009 (ip), vehicle: other 94 % of control and 93 % of control | endpoint: mean survival time, dose: 200.0 mg/kg/injection, schedule: Q01DX009 (ip), vehicle: other 97 % of control and 93 % of control

CC1(C(=O)O)C2C3C=CC(C3)C21 (configuration not stated)
inactive: [5] 100 % of control | [7] 97 % of control | [9] 103 % of control

C=C(Br)CN=C=S
inactive: endpoint: mean survival time, dose: 12.5 mg/kg/injection, schedule: Q04DX003 (ip), vehicle: saline 94 % of control | endpoint: mean survival time, dose: 25.0 mg/kg/injection, schedule: Q04DX003 (ip), vehicle: saline 94 % of control | endpoint: mean survival time, dose: 50.0 mg/kg/injection, schedule: Q04DX003 (ip), vehicle: saline 88 % of control

c1ccc(N=Nc2n[nH]c3ccccc23)cc1
inactive: [6] 95 % of control | [8] 98 % of control | [10] 95 % of control

CN(C)c1ccc(C(=O)OOOOC(c2ccc(N(C)C)cc2)(c2ccc(N(C)C)cc2)c2ccc(N(C)C)cc2)cc1
inactive: endpoint: mean survival time, dose: 50.0 mg/kg/injection, schedule: Q01DX001 (ip), vehicle: saline 95 % of control | [11] 95 % of control | [12] 107 % of control | [13] 89 % of control

O=c1c2ccccc2sc2c1ccc1ccccc12
inactive: endpoint: mean survival time, dose: 100.0 mg/kg/injection, schedule: Q01DX001 (ip), vehicle: saline with Tween-80 100 % of control | endpoint: mean survival time, dose: 200.0 mg/kg/injection, schedule: Q01DX001 (ip), vehicle: saline with Tween-80 101 % of control | endpoint: mean survival time, dose: 400.0 mg/kg/injection, schedule: Q01DX001 (ip), vehicle: saline with Tween-80 94 % of control

CC[C@H](CC[C@@H](C)[C@H]1CC[C@H]2[C@@H]3CC=C4C[C@@H](O)CC[C@]4(C)[C@H]3CC[C@]12C)C(C)C
inactive: [5] 89 % of control | [7] 101 % of control | [9] 95 % of control

CC(C)NC(=O)CCCN(C(=O)OCc1ccccc1)N(C)C(=O)OCc1ccccc1
inactive: endpoint: mean survival time, dose: 25.0 mg/kg/injection, schedule: Q04DX003 (ip), vehicle: Klucel (hydroxypropylcellulose) (HPC) 94 % of control | [1] 91 % of control | [2] 103 % of control | [3] 91 % of control | [4] 95 % of control

Cc1cc(O)c2c(c1O)C(=O)c1cccc(O)c1C2=O
inactive: endpoint: mean survival time, dose: 0.75 mg/kg/injection, schedule: Q01DX009 (ip), vehicle: Klucel (hydroxypropylcellulose) (HPC) 103 % of control | endpoint: mean survival time, dose: 1.5 mg/kg/injection, schedule: Q01DX009 (ip), vehicle: Klucel (hydroxypropylcellulose) (HPC) 98 % of control | endpoint: mean survival time, dose: 3.0 mg/kg/injection, schedule: Q01DX009 (ip), vehicle: Klucel (hydroxypropylcellulose) (HPC) 101 % of control | endpoint: mean survival time, dose: 6.0 mg/kg/injection, schedule: Q01DX009 (ip), vehicle: Klucel (hydroxypropylcellulose) (HPC) 113 % of control

COc1cc([N+](=O)[O-])ccc1NC(=O)OC/C=C/c1ccccc1
inactive: [5] 92 % of control | [7] 91 % of control

C=CC1CC2C=CC1C2 (configuration not stated) (tested in a mixture with another compound)
inactive: endpoint: mean survival time, dose: 80.5 mg/kg/injection, schedule: Q01DX009 (ip), vehicle: saline with Tween-80 106 % of control | endpoint: mean survival time, dose: 161.0 mg/kg/injection, schedule: Q01DX009 (ip), vehicle: saline with Tween-80 90 % of control

O=C(CC(c1ccccc1)c1ccccc1)c1ccccc1
inactive: [5] 98 % of control | [7] 95 % of control | [9] 98 % of control

COc1ccc(CCl)cc1CCl
inactive: [6] 102 % of control | [8] 91 % of control

CN(CCC#N)C(=O)Nc1ccccc1
inactive: endpoint: mean survival time, dose: 100.0 mg/kg/injection, schedule: Q04DX003 (ip), vehicle: saline + alcohol 93 % of control | endpoint: mean survival time, dose: 200.0 mg/kg/injection, schedule: Q04DX003 (ip), vehicle: saline + alcohol 98 % of control | endpoint: mean survival time, dose: 400.0 mg/kg/injection, schedule: Q04DX003 (ip), vehicle: saline + alcohol 95 % of control

COc1ccccc1C(O)(C(=O)OCCSC)c1ccccc1OC
inactive: [14] 93 % of control | [15] 94 % of control | [16] 88 % of control

O=C(CCl)Nc1ccc(SSc2ccc(NC(=O)CCl)cc2)cc1
inactive: endpoint: mean survival time, dose: 25.0 mg/kg/injection, schedule: Q01DX009 (ip), vehicle: Klucel (hydroxypropylcellulose) (HPC) 95 % of control | endpoint: mean survival time, dose: 50.0 mg/kg/injection, schedule: Q01DX009 (ip), vehicle: Klucel (hydroxypropylcellulose) (HPC) 96 % of control | endpoint: mean survival time, dose: 100.0 mg/kg/injection, schedule: Q01DX009 (ip), vehicle: Klucel (hydroxypropylcellulose) (HPC) 93 % of control

CC(C)C(S(=O)(=O)c1ccccc1)S(=O)(=O)c1ccccc1
inactive: [11] 105 % of control | [12] 103 % of control | [13] 96 % of control

O=C1C(CO)=C[C@@H](O)[C@H]2O[C@@H]12
inactive: [14] 100 % of control | [15] 102 % of control | [16] 102 % of control

OC1c2ccccc2CC1N1CCCCC1 (configuration not stated)
inactive: endpoint: mean survival time, dose: 25.0 mg/kg/injection, schedule: Q01DX009 (ip), vehicle: saline with Tween-80 95 % of control | [17] 101 % of control | [5] 98 % of control

O=c1cc(CCl)oc(Br)c1O
inactive: endpoint: mean survival time, dose: 25.0 mg/kg/injection, schedule: Q04DX002 (ip), vehicle: saline with Tween-80 98 % of control | endpoint: mean survival time, dose: 50.0 mg/kg/injection, schedule: Q04DX002 (ip), vehicle: saline with Tween-80 98 % of control | endpoint: mean survival time, dose: 100.0 mg/kg/injection, schedule: Q04DX002 (ip), vehicle: saline with Tween-80 91 % of control

Cn1c(=O)c2c(ncn2CN2CCN(Cn3cnc4c3c(=O)n(C)c(=O)n4C)CC2)n(C)c1=O
inactive: [11] 94 % of control | [12] 97 % of control

[Cl][Pt+2][Cl].[NH-]CC(=O)O.[NH-]CC(=O)O
inactive: endpoint: mean survival time, dose: 12.5 mg/kg/injection, schedule: Q01DX009 (ip), vehicle: saline 96 % of control | endpoint: mean survival time, dose: 25.0 mg/kg/injection, schedule: Q01DX009 (ip), vehicle: saline 101 % of control | endpoint: mean survival time, dose: 50.0 mg/kg/injection, schedule: Q01DX009 (ip), vehicle: saline 108 % of control | endpoint: mean survival time, dose: 100.0 mg/kg/injection, schedule: Q01DX009 (ip), vehicle: saline 98 % of control | endpoint: mean survival time, dose: 200.0 mg/kg/injection, schedule: Q01DX009 (ip), vehicle: saline 96 % of control

C=C(Cl)CN(CC)CCO
inactive: [5] 103 % of control

COc1cc(OC)c(NC(=O)Oc2ccc(F)cc2Cl)cc1Cl
inactive: [17] 88 % of control | [5] 100 % of control | [7] 103 % of control
